These results are taken from article PMC5359596, “A new electro-optical approach for conductance measurement: an assay for the study of drugs acting on ligand-gated ion channels” (Scientific Reports, 2017).

As a reminder, the EC50 is the concentration that produces a half-maximal response.

Common to all, as to type: cell-based
The target of assay [1] is T1, P2RX7 receptor (Homo sapiens, UniProt Q99572).
T1 construct: host or cells: HEK-293
T1 sequence (Q99572 1-595): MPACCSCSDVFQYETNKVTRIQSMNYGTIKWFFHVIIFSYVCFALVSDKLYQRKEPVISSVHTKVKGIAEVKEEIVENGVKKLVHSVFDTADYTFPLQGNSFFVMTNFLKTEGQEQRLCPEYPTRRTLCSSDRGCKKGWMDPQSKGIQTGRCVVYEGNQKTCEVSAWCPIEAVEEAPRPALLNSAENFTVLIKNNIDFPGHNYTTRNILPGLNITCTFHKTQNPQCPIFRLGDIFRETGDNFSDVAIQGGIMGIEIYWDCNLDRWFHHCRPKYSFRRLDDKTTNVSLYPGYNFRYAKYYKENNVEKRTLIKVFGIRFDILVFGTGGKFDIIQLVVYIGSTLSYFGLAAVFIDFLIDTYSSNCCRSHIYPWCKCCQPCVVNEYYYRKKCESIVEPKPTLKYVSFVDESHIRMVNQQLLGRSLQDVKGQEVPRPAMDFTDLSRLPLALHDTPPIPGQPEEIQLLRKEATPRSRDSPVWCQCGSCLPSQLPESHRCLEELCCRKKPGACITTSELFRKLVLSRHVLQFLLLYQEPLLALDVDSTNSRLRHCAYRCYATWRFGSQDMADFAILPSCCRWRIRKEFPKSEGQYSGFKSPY
Briefly: ionChannelΩ conductance assay, HEK-293 expressing P2RX7. To be noted: HEK-293_P2RX7, agonist.

Assay [2] addresses T1, P2RX7 receptor. Put plainly: FLIPR (GCaMP2.1 calcium biosensor), HEK-293 expressing P2RX7. Particulars: HEK-293_P2RX7, agonist. The method, then:
(§1) Intracellular calcium concentration was measured by: GCaMP2.1 calcium biosensor for P2RX7; Screen Quest™ Fluo-8 No. Wash Calcium Assay Kit (AAT Bioquest) for TRPV1; and Calcium Assay Kit (Molecular Devices) for TRPM2.
For the P2RX7 assay, cells were preincubated in Low Calcium, Magnesium free Tyrode’s Buffer.
Reference blockers were injected at FLIPRTetra instrument and fluorescence signal was recorded. After 10 minutes a second injection of reference activators was performed and fluorescence was measured.

For another assay, the target named is T2, hTRPV1 (Homo sapiens, UniProt Q8NER1).
T2 construct: host or cells: CHO-K1
T2 sequence (Q8NER1 whole entry): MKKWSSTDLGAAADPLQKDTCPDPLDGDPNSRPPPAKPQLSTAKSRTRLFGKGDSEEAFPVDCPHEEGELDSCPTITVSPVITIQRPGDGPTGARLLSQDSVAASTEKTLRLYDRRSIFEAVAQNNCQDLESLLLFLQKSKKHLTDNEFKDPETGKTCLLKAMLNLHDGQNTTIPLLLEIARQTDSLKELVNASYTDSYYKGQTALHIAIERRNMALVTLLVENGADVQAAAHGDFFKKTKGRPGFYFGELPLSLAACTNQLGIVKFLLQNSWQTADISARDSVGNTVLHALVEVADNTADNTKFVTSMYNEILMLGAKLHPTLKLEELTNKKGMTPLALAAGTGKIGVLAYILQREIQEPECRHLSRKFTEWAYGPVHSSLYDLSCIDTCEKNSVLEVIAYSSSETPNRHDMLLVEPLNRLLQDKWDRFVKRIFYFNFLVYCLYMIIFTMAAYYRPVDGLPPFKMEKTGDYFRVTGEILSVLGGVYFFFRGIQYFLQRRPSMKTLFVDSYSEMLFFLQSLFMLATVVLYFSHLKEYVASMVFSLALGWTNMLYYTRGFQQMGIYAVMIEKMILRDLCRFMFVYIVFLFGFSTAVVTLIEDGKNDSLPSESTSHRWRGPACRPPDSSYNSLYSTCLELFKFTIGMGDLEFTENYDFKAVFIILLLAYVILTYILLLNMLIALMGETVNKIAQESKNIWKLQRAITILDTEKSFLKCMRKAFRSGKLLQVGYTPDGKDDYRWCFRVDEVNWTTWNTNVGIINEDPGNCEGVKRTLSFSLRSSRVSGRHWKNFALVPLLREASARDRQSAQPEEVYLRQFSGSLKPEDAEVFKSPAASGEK
Briefly: ionChannelΩ electro-optical conductance assay, CHO-K1 expressing hTRPV1. To be noted: scatter plot linear regression, highest capsaicin concentrations.

Assay [3] deals with T3, TRPM2 (Homo sapiens, UniProt O94759).
T3 construct: host or cells: HEK-293
T3 sequence (O94759 whole entry): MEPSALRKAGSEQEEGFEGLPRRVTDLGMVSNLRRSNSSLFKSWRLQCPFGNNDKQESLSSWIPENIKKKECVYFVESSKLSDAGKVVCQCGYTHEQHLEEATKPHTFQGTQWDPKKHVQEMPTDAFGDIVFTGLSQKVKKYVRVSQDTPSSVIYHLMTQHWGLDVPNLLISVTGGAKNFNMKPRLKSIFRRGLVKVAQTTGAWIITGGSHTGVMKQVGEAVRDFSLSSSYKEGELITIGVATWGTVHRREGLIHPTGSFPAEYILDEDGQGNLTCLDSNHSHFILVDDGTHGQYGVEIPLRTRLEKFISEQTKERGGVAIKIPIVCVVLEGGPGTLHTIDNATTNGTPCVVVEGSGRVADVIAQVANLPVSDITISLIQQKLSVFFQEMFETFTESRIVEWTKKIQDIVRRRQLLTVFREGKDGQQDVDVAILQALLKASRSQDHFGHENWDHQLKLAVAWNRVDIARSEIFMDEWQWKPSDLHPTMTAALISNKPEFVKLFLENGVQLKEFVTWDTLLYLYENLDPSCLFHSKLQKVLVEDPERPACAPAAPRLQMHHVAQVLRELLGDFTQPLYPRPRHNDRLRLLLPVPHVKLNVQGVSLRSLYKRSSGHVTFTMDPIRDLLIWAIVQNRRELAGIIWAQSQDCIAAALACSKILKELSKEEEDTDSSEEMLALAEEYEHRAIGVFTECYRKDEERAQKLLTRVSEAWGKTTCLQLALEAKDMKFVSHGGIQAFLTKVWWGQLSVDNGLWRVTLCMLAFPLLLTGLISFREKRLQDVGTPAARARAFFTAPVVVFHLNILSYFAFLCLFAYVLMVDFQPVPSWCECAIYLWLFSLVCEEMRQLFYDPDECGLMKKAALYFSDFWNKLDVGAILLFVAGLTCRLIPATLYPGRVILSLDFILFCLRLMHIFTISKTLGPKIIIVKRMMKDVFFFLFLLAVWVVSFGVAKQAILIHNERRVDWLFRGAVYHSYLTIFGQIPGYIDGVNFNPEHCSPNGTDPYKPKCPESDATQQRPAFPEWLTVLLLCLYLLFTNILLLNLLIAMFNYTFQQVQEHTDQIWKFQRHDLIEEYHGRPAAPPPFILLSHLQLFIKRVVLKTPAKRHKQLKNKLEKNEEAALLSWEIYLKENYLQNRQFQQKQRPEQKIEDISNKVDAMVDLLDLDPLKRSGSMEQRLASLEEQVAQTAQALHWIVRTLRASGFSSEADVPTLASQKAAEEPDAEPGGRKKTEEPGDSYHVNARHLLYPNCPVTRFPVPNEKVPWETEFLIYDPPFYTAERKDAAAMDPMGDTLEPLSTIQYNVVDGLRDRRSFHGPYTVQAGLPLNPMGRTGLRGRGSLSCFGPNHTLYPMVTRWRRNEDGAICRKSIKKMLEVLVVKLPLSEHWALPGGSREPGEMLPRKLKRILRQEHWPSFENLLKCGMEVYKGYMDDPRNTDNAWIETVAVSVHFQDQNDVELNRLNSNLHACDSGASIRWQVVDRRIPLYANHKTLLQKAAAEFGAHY
Put plainly: ionChannelΩ conductance assay, HEK-293 expressing TRPM2. To be noted: HEK-293_TRPM2.
Procedure: (§2) Test current pulses (mono or biphasic) were administered to cells by parallel electrodes placed on the plane of the cells. Pulse length was several times the membrane time constant of the investigated cells in order to acquire images at a time of the pulse when plateau was fully established. Current intensity was set high enough to generate significant variations in the fluorescence signal, still avoiding membrane electroporation[35]. More specifically, a plot of the ΔFc/FRc values obtained at increasing current values was obtained: only current intensities giving correlative values lying on the linear part of the plot were used. […]
(§3) Images are processed off-line by a MATLAB-based Image Analysis program, developed in the laboratory, which offers the possibility to employ different filters, parameters and types of analysis in order to extract the data necessary to draw CRCs. […] More specifically, pixels were selected as part of the shape mask when the following requirements were met: to be part of the cell (recognition of object boundary from fluorescence signals); to be confined to the plasma membrane region (calculation of a ring of depth boundaries). […] In either case, mean values ± standard error (calculated from values obtained in the different sampling areas of the same well) were obtained at the various concentration of the drug and fitted by a nonlinear regression curve. […]

Assay [4] concerns the target T3, TRPM2. Briefly: FLIPR (Calcium Assay Kit), HEK-293 expressing TRPM2. Particulars: HEK-293_TRPM2. How it is done:
as §1

For the next assay, the system named is HeLa cells. Briefly: Optical detection of plasma membrane resistance changes in HeLa cells (conventional microscope). To be noted: increasing concentrations. An excerpt: Resistance (R) determines the magnitude of the passive changes observed in membrane potential in response to a constant current: the lower the resistance, the lower the membrane potential variation (Supplementary Figure 1). Accordingly, we investigated the possibility of using local membrane potential variations imposed by a test square current pulse to measure changes in membrane resistance. The variation of VSD fluorescence values during the current pulse, were quantified as ΔF, i.e. the difference between the plateau value reached during the electric stimulus (FS) and the pre-stimulus, resting, value (FR) (Supplementary Figure 1). ΔF values were further normalized to their respective resting values (ΔF/FR) to take into account even minimal variations of VSD fluorescence due to dye bleaching. […]
Images were processed off-line by an image analysis program developed in MATLAB (The MathWorks). […] Fluorescence intensity values were calculated as the mean of the values obtained in the selected ROIs within the 3 stimuli series administered in the different conditions (before and during the plateau phase of the pulse, in the absence and in the presence of a test compound). […]

Procedure for hTRPV1: as §2, §3

For “2′(3′)-O-(4-Benzoylbenzoyl)adenosine 5′-triphosphate triethylammonium salt [BzATP]”, the EC50 was found to be 3.4 µM at P2RX7 receptor [1] and 6.35 µM on P2RX7 receptor [2].

Regarding `COc1cc(CNC(=O)CCCC/C=C/C(C)C)ccc1O` [capsaicin], the “unitary slope resistance, final value at increasing concentrations” value at hTRPV1 is listed as ~20 % of control.

Take `COC1=C(N)C(=O)c2nc(-c3nc(C(=O)O)c(C)c(-c4ccc(OC)c(OC)c4O)c3N)ccc2C1=O` [streptonigrin]: the EC50 at TRPM2 [3] was 14.1 µM; at TRPM2 [4], 4.3 µM.

As for “Streptolysin-O: bacterial protein able to insert into the eukaryotic plasma membrane and form non-selective ion pores”, the “VSD responses to electric square pulses (membrane resistance)” value in the assay on HeLa cells is on record as “progressively reduced in amplitude”.
